Assay results: patent US11186598B2, “Radioactive phospholipid metal chelates for cancer imaging and therapy” (Wisconsin Alumni Research Foundation, priority 2016, dated 2021)

Test system: flank U87 tumors
Assay: MRI comparison of Gd-DO3A-404 and DOTAREM in mice with flank U87 tumors (Example 5)
Type: in vivo, mouse
Settings: as compared to Gd-DO3A-404
Excerpt: To verify that uptake and retention was due to targeting of the “404” moiety, we directly compared the uptake of Gd-DO3A-404 with that of DOTA-chelated Gd^3+ (DOTAREM®) in an identical tumor model (mice with flank U87 tumors) and imaging scenario, using the same number of moles of each.
We the quantified the tumor to muscle ratio and compare it to baseline scans.

## CNC[C@H](O)[C@@H](O)[C@H](O)[C@H](O)CO.O=C([O-])CN1CCN(CC(=O)[O-])CCN(CC(=O)O)CCN(CC(=O)[O-])CC1.[Gd+3] [DOTAREM®]
  tumor to muscle ratio compared to baseline scans (uptake): less striking, and significant only at a couple of early time points
